Reference: ChEMBL document CHEMBL3232736, “Antiproliferative activities of halogenated thieno[3,2-d]pyrimidines” (Bioorg Med Chem, 2014)
In brackets after ≈: the same amount, converted by molar mass. Activity calls are given as the source filed them. The rule behind the calls is not given here.

Key:
HeLa [1] = assay: Cytotoxicity against human HeLa cells assessed as reduction in cell number; type: functional
L1210 [2] = assay: Cytotoxicity against mouse L1210 cells assessed as reduction in cell number after 48 hrs by cell counting assay; type: functional, cell-based; conditions: L1210, 48 h
Candida albicans [3] = assay: Antifungal activity against Candida albicans ATCC 10231 assessed as growth inhibition at 100 uM after 16 to 20 hrs by microbroth dilution method; type: functional
Cryptococcus neoformans [4] = assay: Antifungal activity against Cryptococcus neoformans VANC-R265 assessed as growth inhibition at 100 uM after 48 hrs by microbroth dilution method; type: functional
CCRF-CEM = assay: Cytotoxicity against human CCRF-CEM cells assessed as reduction in cell number after 72 hrs by cell counting assay; type: functional, cell-based
Escherichia coli = assay: Antibacterial activity against Escherichia coli ATCC 25922 assessed as growth inhibition at 100 uM after 16 to 20 hrs by microbroth dilution method; type: functional, organism-based
Staphylococcus aureus = assay: Antibacterial activity against methicillin-resistant Staphylococcus aureus subsp. aureus ATCC 43300 assessed as growth inhibition at 100 uM after 16 to 20 hrs by microbroth dilution method; type: functional, organism-based
HeLa [5] = assay: Cytotoxicity against human HeLa cells assessed as reduction in cell number after 72 hrs by cell counting assay; type: functional, cell-based
Cryptococcus neoformans [6] = assay: Antifungal activity against Cryptococcus neoformans JEC20 assessed as growth inhibition at 100 uM after 48 hrs by microbroth dilution method; type: functional
Cryptococcus neoformans [7] = assay: Antifungal activity against Cryptococcus neoformans B4546 assessed as growth inhibition at 100 uM after 48 hrs by microbroth dilution method; type: functional
HEL = assay: Cytotoxicity against human HEL cells assessed as reduction in cell number by cell counting assay; type: functional
Cryptococcus neoformans [8] = assay: Antifungal activity against Cryptococcus neoformans ATCC 66031 assessed as growth inhibition at 100 uM after 48 hrs by microbroth dilution method; type: functional
Vero = assay: Cytotoxicity against African green monkey Vero cells assessed as reduction in cell number; type: cell-based; conditions: chlorocebus sabaeus
Bacillus spizizenii = assay: Antibacterial activity against Bacillus subtilis ATCC 6633 assessed as growth inhibition at 100 uM after 16 to 20 hrs by microbroth dilution method; type: functional
[9] = molecular target: Tyrosine-protein kinase JAK2 (Homo sapiens) (UniProt O60674); assay: Inhibition of JAK2 (unknown origin) at 5 uM
Tyrosine-protein kinase JAK2 (Homo sapiens), sequence (O60674 whole entry, the tested form may be a part): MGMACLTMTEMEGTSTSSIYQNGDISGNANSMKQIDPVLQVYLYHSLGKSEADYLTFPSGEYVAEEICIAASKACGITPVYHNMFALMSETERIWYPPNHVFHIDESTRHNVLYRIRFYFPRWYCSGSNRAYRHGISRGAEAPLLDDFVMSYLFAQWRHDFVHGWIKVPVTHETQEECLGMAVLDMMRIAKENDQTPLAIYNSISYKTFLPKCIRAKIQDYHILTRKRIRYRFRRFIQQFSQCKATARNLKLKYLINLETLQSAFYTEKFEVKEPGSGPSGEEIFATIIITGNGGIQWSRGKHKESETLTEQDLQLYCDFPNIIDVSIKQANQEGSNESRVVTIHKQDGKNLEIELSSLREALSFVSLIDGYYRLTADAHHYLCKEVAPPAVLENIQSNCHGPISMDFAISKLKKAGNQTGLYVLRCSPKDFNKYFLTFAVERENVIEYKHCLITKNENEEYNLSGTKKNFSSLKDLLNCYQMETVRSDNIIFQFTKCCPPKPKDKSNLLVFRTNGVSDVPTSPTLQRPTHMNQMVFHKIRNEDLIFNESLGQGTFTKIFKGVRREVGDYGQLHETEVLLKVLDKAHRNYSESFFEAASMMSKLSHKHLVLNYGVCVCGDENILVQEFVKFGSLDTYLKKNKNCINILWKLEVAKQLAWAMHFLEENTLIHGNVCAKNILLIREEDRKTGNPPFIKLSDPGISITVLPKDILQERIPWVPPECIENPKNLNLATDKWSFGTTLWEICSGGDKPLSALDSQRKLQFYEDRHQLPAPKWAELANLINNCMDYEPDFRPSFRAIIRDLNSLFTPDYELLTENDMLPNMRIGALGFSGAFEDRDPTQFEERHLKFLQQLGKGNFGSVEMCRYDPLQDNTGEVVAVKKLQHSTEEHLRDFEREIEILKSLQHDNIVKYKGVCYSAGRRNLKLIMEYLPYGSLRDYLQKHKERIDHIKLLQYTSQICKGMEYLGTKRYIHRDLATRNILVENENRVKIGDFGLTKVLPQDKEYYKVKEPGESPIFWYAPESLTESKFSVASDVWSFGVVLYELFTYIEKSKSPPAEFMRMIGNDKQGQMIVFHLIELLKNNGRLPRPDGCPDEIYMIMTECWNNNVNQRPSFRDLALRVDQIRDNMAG

L1210 [10] = assay: Cytotoxicity against mouse L1210 cells assessed as reduction in cell viability after 48 hrs by MTT assay; type: functional, cell-based; conditions: L1210, 48 h
L1210 [11] = assay: Induction of apoptosis in mouse L1210 cells assessed as viable cells level at 1 uM after 48 hrs by Annexin-V/7-AAD staining-based flow cytometric analysis (reference value: 92.5%); type: functional
L1210 [12] = assay: Induction of apoptosis in mouse L1210 cells assessed as late cells level at 1 uM after 48 hrs by Annexin-V/7-AAD staining-based flow cytometric analysis (reference value: 1.25%); type: functional
[13] = molecular target: Tyrosine-protein kinase JAK2 (Homo sapiens) (UniProt O60674); assay: Inhibition of JAK2 JH1/JH2 domain (unknown origin) at 5 uM
Cryptococcus neoformans [14] = assay: Antifungal activity against Cryptococcus neoformans JEC20 assessed as growth inhibition after 48 hrs by microbroth dilution method; type: functional; conditions: JEC20, 48 h
[15] = molecular target: Proto-oncogene tyrosine-protein kinase Src (Homo sapiens) (UniProt P12931); assay: Inhibition of SRC (unknown origin) at 5 uM
Proto-oncogene tyrosine-protein kinase Src (Homo sapiens), sequence (P12931 2-536 limits assumed): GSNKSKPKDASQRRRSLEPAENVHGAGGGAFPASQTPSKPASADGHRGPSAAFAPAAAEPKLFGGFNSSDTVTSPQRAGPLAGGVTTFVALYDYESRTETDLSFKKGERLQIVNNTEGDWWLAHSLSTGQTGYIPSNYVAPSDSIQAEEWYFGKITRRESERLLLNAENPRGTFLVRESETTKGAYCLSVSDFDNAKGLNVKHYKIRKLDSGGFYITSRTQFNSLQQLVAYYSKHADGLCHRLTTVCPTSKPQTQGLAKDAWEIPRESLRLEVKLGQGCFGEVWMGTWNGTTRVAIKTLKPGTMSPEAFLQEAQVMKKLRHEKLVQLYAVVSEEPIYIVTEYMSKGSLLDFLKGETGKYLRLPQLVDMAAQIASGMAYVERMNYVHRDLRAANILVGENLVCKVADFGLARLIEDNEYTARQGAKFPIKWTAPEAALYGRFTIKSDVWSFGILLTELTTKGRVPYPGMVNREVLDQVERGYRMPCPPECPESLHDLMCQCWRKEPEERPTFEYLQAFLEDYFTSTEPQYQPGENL

[16] = molecular target: Non-receptor tyrosine-protein kinase TYK2 (Homo sapiens) (UniProt P29597); assay: Inhibition of TYK2 (unknown origin) at 5 uM
Cryptococcus neoformans [17] = assay: Antifungal activity against Cryptococcus neoformans B4546 assessed as growth inhibition after 48 hrs by microbroth dilution method; type: functional; conditions: B4546, 48 h
Enterococcus faecalis = assay: Antibacterial activity against vancomycin-resistant Enterococcus faecalis ATCC 51299 assessed as growth inhibition at 100 uM after 16 to 20 hrs by microbroth dilution method; type: functional, organism-based
[18] = molecular target: PI3-kinase p110-alpha/p85-alpha (Homo sapiens) (UniProt P27986+P42336); assay: Inhibition of PIK3CA/PIK3R1 (unknown origin) at 5 uM; type: protein-complex assay
L1210 [19] = assay: Induction of apoptosis in mouse L1210 cells assessed as necrotic cells level at 1 uM after 48 hrs by Annexin-V/7-AAD staining-based flow cytometric analysis (reference value: 3.68%); type: functional
[20] = molecular target: PI3-kinase p110-delta/p85-alpha (Homo sapiens) (UniProt P27986+O00329); assay: Inhibition of PIK3CD/PIK3R1 (unknown origin) at 5 uM; type: protein-complex assay
Candida albicans [21] = assay: Antifungal activity against Candida albicans ATCC 10231 assessed as growth inhibition after 16 to 20 hrs by microbroth dilution method; type: functional
[22] = molecular target: Tyrosine-protein kinase JAK1 (Homo sapiens) (UniProt P23458); assay: Inhibition of JAK1 (unknown origin) at 5 uM
[23] = molecular target: Serine/threonine-protein kinase D3 (Homo sapiens) (UniProt O94806); assay: Inhibition of PRKCN (unknown origin) at 5 uM
L1210 [24] = assay: Cell cycle arrest in mouse L1210 cells at 0.32 uM after 24 to 48 hrs by propidium iodide staining-based flow cytometric analysis; type: functional
[25] = molecular target: Serine/threonine-protein kinase D2 (Homo sapiens) (UniProt Q9BZL6); assay: Inhibition of PRKD2 (unknown origin) at 5 uM
[26] = tested on: Tyrosine-protein kinase JAK2 (Homo sapiens), O60674 [V617F]; assay: Inhibition of JAK2 JH1/JH2 domain V617F mutant (unknown origin) at 5 uM
Tyrosine-protein kinase JAK2 (Homo sapiens), O60674 [V617F], sequence (O60674 whole entry V617F, the tested form may be a part): as the sequence (O60674 whole entry, the tested form may be a part) above, with V617F counted along it

[27] = molecular target: Serine/threonine-protein kinase D1 (Homo sapiens) (UniProt Q15139); assay: Inhibition of PRKD1 (unknown origin) at 5 uM
Pseudomonas aeruginosa = assay: Antibacterial activity against Pseudomonas aeruginosa ATCC 27853 assessed as growth inhibition at 100 uM after 16 to 20 hrs by microbroth dilution method; type: functional, organism-based
[28] = molecular target: Phosphatidylinositol 4-phosphate 3-kinase C2 domain-containing subunit alpha (Homo sapiens) (UniProt O00443); assay: Inhibition of PIK3C2A (unknown origin) at 5 uM
[29] = molecular target: Phosphatidylinositol 4,5-bisphosphate 3-kinase catalytic subunit gamma isoform (Homo sapiens) (UniProt P48736); assay: Inhibition of PIK3CG (unknown origin) at 5 uM
L1210 [30] = assay: Induction of apoptosis in mouse L1210 cells assessed as early apoptotic cells level at 1 uM after 48 hrs by Annexin-V/7-AAD staining-based flow cytometric analysis (reference value: 2.59%); type: functional
[31] = molecular target: Phosphatidylinositol 3-kinase catalytic subunit type 3 (Homo sapiens) (UniProt Q8NEB9); assay: Inhibition of PIK3C3 (unknown origin) at 5 uM
[32] = molecular target: Proto-oncogene tyrosine-protein kinase Src (Homo sapiens) (UniProt P12931); assay: Inhibition of SRC N1 (unknown origin) at 5 uM
[33] = molecular target: Serine/threonine-protein kinase mTOR (Homo sapiens) (UniProt P42345); assay: Inhibition of FRAP1 (unknown origin) at 5 uM
[34] = molecular target: Phosphatidylinositol 4-phosphate 3-kinase C2 domain-containing subunit beta (Homo sapiens) (UniProt O00750); assay: Inhibition of PIK3C2B (unknown origin) at 5 uM
Phosphatidylinositol 4-phosphate 3-kinase C2 domain-containing subunit beta (Homo sapiens), sequence (O00750 whole entry, the tested form may be a part): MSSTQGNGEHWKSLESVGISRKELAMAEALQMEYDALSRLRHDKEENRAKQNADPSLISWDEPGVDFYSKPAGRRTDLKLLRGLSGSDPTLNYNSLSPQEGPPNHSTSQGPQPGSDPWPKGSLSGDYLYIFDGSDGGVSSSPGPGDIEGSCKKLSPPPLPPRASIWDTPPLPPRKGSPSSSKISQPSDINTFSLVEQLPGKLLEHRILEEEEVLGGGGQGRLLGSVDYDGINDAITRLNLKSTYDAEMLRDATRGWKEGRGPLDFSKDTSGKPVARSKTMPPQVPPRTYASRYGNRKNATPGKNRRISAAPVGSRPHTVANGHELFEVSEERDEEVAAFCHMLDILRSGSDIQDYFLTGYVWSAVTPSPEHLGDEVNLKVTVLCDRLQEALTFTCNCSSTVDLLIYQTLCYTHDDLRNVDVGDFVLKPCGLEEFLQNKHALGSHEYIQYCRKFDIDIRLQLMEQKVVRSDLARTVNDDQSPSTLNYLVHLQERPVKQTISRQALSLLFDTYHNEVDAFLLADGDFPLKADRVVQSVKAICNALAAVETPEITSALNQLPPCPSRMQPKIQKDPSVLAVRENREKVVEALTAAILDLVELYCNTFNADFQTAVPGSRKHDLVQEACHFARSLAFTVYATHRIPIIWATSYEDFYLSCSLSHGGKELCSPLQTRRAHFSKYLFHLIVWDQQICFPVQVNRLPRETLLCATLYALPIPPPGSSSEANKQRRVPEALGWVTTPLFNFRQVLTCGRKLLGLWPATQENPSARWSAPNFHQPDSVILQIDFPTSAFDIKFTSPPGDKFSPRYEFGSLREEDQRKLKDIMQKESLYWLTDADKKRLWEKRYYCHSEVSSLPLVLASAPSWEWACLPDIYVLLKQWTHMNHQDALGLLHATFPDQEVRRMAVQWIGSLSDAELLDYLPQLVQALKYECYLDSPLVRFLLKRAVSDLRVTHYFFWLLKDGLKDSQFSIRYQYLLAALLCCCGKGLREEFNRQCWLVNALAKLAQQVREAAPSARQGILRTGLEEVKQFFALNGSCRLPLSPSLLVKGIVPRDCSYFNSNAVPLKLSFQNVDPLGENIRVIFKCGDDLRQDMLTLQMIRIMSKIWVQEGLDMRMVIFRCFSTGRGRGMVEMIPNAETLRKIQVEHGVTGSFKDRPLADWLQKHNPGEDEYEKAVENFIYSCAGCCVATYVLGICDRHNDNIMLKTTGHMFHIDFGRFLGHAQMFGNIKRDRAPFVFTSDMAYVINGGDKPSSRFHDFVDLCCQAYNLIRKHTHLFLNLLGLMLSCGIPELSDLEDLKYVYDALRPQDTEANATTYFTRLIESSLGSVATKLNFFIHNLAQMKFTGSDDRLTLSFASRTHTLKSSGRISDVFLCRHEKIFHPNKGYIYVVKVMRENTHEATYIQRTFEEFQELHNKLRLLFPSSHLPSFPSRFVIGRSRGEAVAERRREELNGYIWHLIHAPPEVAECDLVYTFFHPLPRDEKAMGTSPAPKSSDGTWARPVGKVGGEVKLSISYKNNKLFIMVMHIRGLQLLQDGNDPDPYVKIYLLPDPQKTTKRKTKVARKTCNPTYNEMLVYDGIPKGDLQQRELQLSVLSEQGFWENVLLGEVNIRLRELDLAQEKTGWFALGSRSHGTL

[35] = molecular target: Leukocyte tyrosine kinase receptor (Homo sapiens) (UniProt P29376); assay: Inhibition of LTK (unknown origin) at 5 uM
[36] = molecular target: Tyrosine-protein kinase JAK3 (Homo sapiens) (UniProt P52333); assay: Inhibition of JAK3 (unknown origin) at 5 uM
Tyrosine-protein kinase JAK3 (Homo sapiens), sequence (P52333 whole entry): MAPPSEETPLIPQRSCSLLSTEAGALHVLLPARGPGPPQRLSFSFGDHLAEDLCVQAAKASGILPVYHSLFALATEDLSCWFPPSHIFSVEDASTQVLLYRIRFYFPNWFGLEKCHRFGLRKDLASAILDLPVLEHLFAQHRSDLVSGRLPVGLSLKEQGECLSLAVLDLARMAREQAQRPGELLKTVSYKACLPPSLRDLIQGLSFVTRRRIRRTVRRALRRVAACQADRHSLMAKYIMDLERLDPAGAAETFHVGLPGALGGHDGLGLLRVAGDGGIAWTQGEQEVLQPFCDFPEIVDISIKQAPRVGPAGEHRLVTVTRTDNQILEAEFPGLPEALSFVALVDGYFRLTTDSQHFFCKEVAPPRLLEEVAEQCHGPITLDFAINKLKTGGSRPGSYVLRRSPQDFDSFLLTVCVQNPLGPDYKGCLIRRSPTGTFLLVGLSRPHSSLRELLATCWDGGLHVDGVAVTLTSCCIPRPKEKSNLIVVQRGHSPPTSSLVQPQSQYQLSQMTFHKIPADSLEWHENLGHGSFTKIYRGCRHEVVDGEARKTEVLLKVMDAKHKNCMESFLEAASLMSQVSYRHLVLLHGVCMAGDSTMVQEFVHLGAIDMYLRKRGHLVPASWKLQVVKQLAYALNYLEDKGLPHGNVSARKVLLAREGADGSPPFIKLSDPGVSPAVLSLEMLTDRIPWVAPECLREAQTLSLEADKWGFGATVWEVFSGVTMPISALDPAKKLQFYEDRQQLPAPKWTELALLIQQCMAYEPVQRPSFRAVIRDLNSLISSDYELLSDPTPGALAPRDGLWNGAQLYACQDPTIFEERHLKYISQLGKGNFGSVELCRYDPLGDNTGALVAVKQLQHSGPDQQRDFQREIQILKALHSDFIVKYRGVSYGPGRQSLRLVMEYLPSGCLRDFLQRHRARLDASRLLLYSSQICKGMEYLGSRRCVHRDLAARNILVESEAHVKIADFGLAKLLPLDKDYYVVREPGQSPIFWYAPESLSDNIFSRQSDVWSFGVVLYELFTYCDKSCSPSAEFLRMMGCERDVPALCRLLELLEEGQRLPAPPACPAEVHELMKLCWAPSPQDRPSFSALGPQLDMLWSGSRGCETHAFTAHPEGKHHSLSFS

[37] = molecular target: Hepatocyte growth factor receptor (Homo sapiens) (UniProt P08581); assay: Inhibition of MET (unknown origin) at 5 uM

`Clc1nc(Cl)c2[nH]ccc2n1` was tested, and the MIC99 (HeLa [1]) was 20 µM (≈ 3.76 µg/mL), the IC50 (L1210 [2]) was 6.8 µM and the inhibition (Candida albicans [3]) was “inactive”. For the same compound, the inhibition (Cryptococcus neoformans [4]) was “inactive”, the IC50 (CCRF-CEM) was 25 µM and the inhibition (Escherichia coli) was “inactive”. For the same compound, the inhibition (Staphylococcus aureus) was “inactive”, the IC50 (HeLa [5]) was 19 µM and the inhibition (Cryptococcus neoformans [6]) was “inactive”. The inhibition (Cryptococcus neoformans [7]) was “inactive”, the MIC99 (HEL) was 20 µM (≈ 3.76 µg/mL) and the inhibition (Cryptococcus neoformans [8]) was “inactive”. The MIC99 (Vero) was “>= 20 uM” and the inhibition (Bacillus spizizenii) was “inactive”.

`O=c1[nH]c(=O)c2sccc2[nH]1` was tested, and the IC50 (L1210 [2]) was over 250 µM, the IC50 (CCRF-CEM) was over 250 µM and the IC50 (HeLa [5]) was over 250 µM.

In the case of `Clc1nc(Cl)c2sccc2n1`, the inhibition [9] is reported as under 40%, the IC50 (L1210 [10]) is reported as 0.32 µM and the Activity (L1210 [11]) is reported as 37.9%. The MIC99 (HeLa [1]) was 4 µM (≈ 0.82 µg/mL), the Activity (L1210 [12]) was 4.72% and the inhibition [13] was under 40%. For the same compound, the IC50 (L1210 [2]) was 0.67 µM, the MIC95 (Cryptococcus neoformans [14]) was 16.6 µM (≈ 3.4 µg/mL) and the IC50 (CCRF-CEM) was 5.2 µM. For the same compound, the inhibition [15] was under 40%, the inhibition [16] was under 40% and the inhibition (Escherichia coli) was “inactive”. For the same compound, the MIC95 (Cryptococcus neoformans [17]) was 34.6 µM (≈ 7.1 µg/mL), the inhibition (Enterococcus faecalis) was “inactive” and the inhibition (Staphylococcus aureus) was “inactive”. The inhibition [18] was under 40%, the Activity (L1210 [19]) was 1.29% and the inhibition [20] was under 40%. The MIC95 (Candida albicans [21]) was 23.4 µM (≈ 4.8 µg/mL), the IC50 (HeLa [5]) was 3.9 µM and the inhibition [22] was under 40%. For the same compound, the inhibition [23] was under 40%, the Activity (L1210 [24]) was “inactive” and the inhibition [25] was under 40%. It also gave an MIC99 (HEL) of 100 µM (≈ 20.5 µg/mL), an inhibition [26] of under 40% and an MIC99 (Vero) of 20 µM (≈ 4.1 µg/mL). The inhibition [27] was under 40%, the inhibition (Pseudomonas aeruginosa) was “inactive” and the inhibition [28] was under 40%. For the same compound, the inhibition [29] was under 40%, the Activity (L1210 [30]) was 56% and the inhibition [31] was under 40%. The inhibition at 100 µM (Bacillus spizizenii) was 43%, the inhibition [32] was under 40% and the inhibition [33] was under 40%. It also gave an inhibition [34] of under 40%, an inhibition [35] of under 40% and an inhibition [36] of under 40%. The inhibition [37] was under 40%.

`COc1nc(OC)c2scc(Br)c2n1` gave an IC50 (L1210 [2]) of over 250 µM, an IC50 (CCRF-CEM) of at least 250 µM and an IC50 (HeLa [5]) of 203 µM.

In the case of `Nc1nc(Cl)nc2ccsc12`, the IC50 (L1210 [2]) is reported as over 250 µM, the IC50 (CCRF-CEM) is reported as over 250 µM and the IC50 (HeLa [5]) is reported as over 250 µM.

`O=c1[nH]c(=O)c2scc([C@H]3C[C@H](O)[C@@H](CO)O3)c2[nH]1` showed an IC50 (L1210 [2]) of over 250 µM, an IC50 (CCRF-CEM) of over 250 µM and an IC50 (HeLa [5]) of over 250 µM.

With `Clc1nc(-n2cncn2)c2scc(Br)c2n1` the IC50 (L1210 [2]) was 157 µM, the IC50 (CCRF-CEM) was 84 µM and the IC50 (HeLa [5]) was 116 µM.

`Nc1nc(Cl)nc2c(Br)csc12` showed an IC50 (L1210 [2]) of 150 µM, an IC50 (CCRF-CEM) of 109 µM and an IC50 (HeLa [5]) of 96 µM.

`COc1nc(OC)c2scc([C@H]3C[C@H](OC(C)=O)[C@@H](COC(C)=O)O3)c2n1` gave an IC50 (L1210 [2]) of over 250 µM, an IC50 (CCRF-CEM) of over 250 µM and an IC50 (HeLa [5]) of over 250 µM.
